Measurements as given in patent US20250230155A1 (Vanderbilt University, priority 2021, published 2025).

Target: T1, human mAChR M4 (Homo sapiens, UniProt P08173)
T1 construct: expressed in transfected cells
T1 sequence (P08173 1-479): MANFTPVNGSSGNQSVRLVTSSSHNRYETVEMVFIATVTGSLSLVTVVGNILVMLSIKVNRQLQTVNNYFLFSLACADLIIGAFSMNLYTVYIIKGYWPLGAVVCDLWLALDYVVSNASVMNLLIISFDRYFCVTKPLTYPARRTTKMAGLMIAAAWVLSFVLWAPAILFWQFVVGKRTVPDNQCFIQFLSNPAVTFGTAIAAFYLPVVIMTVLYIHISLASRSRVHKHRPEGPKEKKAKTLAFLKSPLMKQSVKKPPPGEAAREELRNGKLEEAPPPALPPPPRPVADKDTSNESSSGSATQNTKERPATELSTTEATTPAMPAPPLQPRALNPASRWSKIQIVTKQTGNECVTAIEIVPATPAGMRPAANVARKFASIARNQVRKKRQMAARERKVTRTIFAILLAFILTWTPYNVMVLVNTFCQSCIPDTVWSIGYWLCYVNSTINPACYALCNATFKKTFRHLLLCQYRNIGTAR
Assay: mAChR M4 cell-based functional assay (calcium mobilization, CHO-K1 hM4-Gqi5 cells)
Settings: for Emax at 30 µM: CHO-K1, % ACh maximum at 30 μM, human M4; for EC50: positive allosteric modulator activity, increase in the EC20 acetylcholine response, CHO-K1 hM4-Gqi5 cells, read-out: Human M4 EC50; for Emax: CHO-K1
How it was run: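 Fluorescent calcium read-out (Fluo-4 AM, FDSS, 1 Hz) in hM4-Gqi5 CHO-K1 cells, 11-point 1:3 compound series. Agonism scored on compound addition, PAM activity as increase of the 144 s EC20 acetylcholine response, antagonism as decrease of the 230 s EC80 response; four-parameter logistic fits give EC50 and Emax.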

`Cc1cc(C(=O)NCc2ccc3c(c2)CC(=O)N3)cnc1N1CCc2ncccc2C1` [compound 154, 6-(7,8-dihydro-5H-1,6-naphthyridin-6-yl)-5-methyl-N-[(2-oxoindolin-5-yl)methyl]pyridine-3-carboxamide] was tested. Which Emax at 30 µM did it give?
The Emax at 30 µM was 47%.

And the EC50?
The EC50 was 6560 nM.

For `Cc1cnc2c(c1)CN(c1nnc(C(=O)NCc3ccncc3C)c(C)c1C)CC2` [Example 472, 4,5-dimethyl-6-(3-methyl-7,8-dihydro-1,6-naphthyridin-6(5H)-yl)-N-((3-methylpyridin-4-yl)methyl)pyridazine-3-carboxamide], which Emax at 30 µM is on record?
Its Emax at 30 µM is 99%.

What about the EC50 of the same compound?
The EC50 was 71 nM.

For `Cc1cc(Nc2cnc3c(c2)CN(c2ncc(C#N)cc2C)CC3)c(F)cn1` [Example 616, 6-(3-((5-fluoro-2-methylpyridin-4-yl)amino)-7,8-dihydro-1,6-naphthyridin-6(5H)-yl)-5-methylnicotinonitrile], which Emax at 30 µM is on record?
The Emax at 30 µM was 95%.

And the EC50?
The EC50 was 4 nM.

What does the source list for `Cc1cc(-c2cnc3c(c2)CN(c2nnc(C(=O)NCc4ccncc4)c(C)c2C)CC3)ccn1` [compound 189, 4,5-dimethyl-6-[3-(2-methyl-4-pyridyl)-7,8-dihydro-5H-1,6-naphthyridin-6-yl]-N-(4-pyridylmethyl)pyridazine-3-carboxamide]?
Emax at 30 µM: 93%; EC50: 199 nM

With `Cc1nc(C)c(C)c(N2CCc3ncc(-c4ccc(N5CCC5)nc4)cc3C2)n1` [compound 234, 3-(6-(azetidin-1-yl)pyridin-3-yl)-6-(2,5,6-trimethylpyrimidin-4-yl)-5,6,7,8-tetrahydro-1,6-naphthyridine] as the compound, how does the Emax at 30 µM read?
Its Emax at 30 µM is 63%.

What about the EC50 of the same compound?
Its EC50 is 354 nM.

Which Emax at 30 µM does the source give for `COc1ccc(Br)cc1CNC(=O)c1cnc(N2CCc3ncccc3C2)c(C)c1` [compound 141, N-[(5-bromo-2-methoxy-phenyl)methyl]-6-(7,8-dihydro-5H-1,6-naphthyridin-6-yl)-5-methyl-pyridine-3-carboxamide] here?
The Emax at 30 µM was 56%.

And the EC50?
The EC50 was 1420 nM.

How did the Emax at 30 µM turn out when `Cc1cc(C#N)cnc1N1CCc2ncc(Nc3ccnn3C)cc2C1` [Example 306, 5-methyl-6-(3-((1-methyl-1H-pyrazol-5-yl)amino)-7,8-dihydro-1,6-naphthyridin-6(5H)-yl)nicotinonitrile] was run?
The Emax at 30 µM was 109%.

And the EC50?
Its EC50 is 23 nM.

For `Cc1c(C(=O)NCc2cncs2)nnc(N2CCc3ncccc3C2)c1C` [compound 138, 6-(7,8-dihydro-5H-1,6-naphthyridin-6-yl)-4,5-dimethyl-N-(thiazol-5-ylmethyl)pyridazine-3-carboxamide], which Emax at 30 µM is on record?
The Emax at 30 µM was 96%.

And the EC50?
The EC50 was 1110 nM.

What does the source list for `Cc1cc(Nc2cnc3c(c2)CN(c2ncc(C#N)cc2C)CC3)n(CCC(C)C)n1` [Example 313, 6-(3-((1-isopentyl-3-methyl-1/- pyrazol-5-yl)amino)-7,8-dihydro-1,6-naphthyridin-6(5H)-yl)-5-methylnicotinonitrile]?
Emax at 30 µM: 42%; EC50: 605 nM

How did the Emax at 30 µM turn out when `Cc1cnccc1CNC(=O)c1cc(C)c(N2CCc3ncc(C(F)(F)F)cc3C2)nn1` [Example 494, 5-methyl-N-((3-methylpyridin-4-yl)methyl)-6-(3-(trifluoromethyl)-7,8-dihydro-1,6-naphthyridin-6(5H)-yl)pyridazine-3-carboxamide] was run?
The Emax at 30 µM was 106%.

What about the EC50 of the same compound?
Its EC50 is 36 nM.

For `COc1nc(C)nc(N2CCc3ncc(-c4cn(C)nc4C)cc3C2)c1C` [compound 196, 3-(1,3-dimethylpyrazol-4-yl)-6-(6-methoxy-2,5-dimethyl-pyrimidin-4-yl)-7,8-dihydro-5H-1,6-naphthyridine], which Emax at 30 µM is on record?
The Emax at 30 µM was 70%.

And the EC50?
The EC50 was 1170 nM.

With `Cc1cc(C(=O)NCc2cncs2)cnc1N1CCc2ncc(-c3ccc(N(C)C)nc3)cc2C1` [Example 485, 6-(3-(6-(dimethylamino)pyridin-3-yl)-7,8-dihydro-1,6-naphthyridin-6(5H)-yl)-5-methyl-N-(thiazol-5-ylmethyl)nicotinamide] as the compound, how does the Emax at 30 µM read?
Its Emax at 30 µM is 79%.

And the EC50?
The EC50 was 247 nM.

Which results are given for `Cc1cc(C#N)cnc1N1CCc2ncc(Nc3ccccn3)cc2C1` [Example 6]?
Emax at 30 µM: 77%; EC50: 223 nM

How did the Emax at 30 µM turn out when `Cc1cnccc1CNC(=O)c1cc(C)c(N2CCc3ncc(N4CCCn5nccc54)cc3C2)nn1` [Example 491, 6-(3-(6,7-dihydropyrazolo[1,5-a]pyrimidin-4(5H)-yl)-7,8-dihydro-1,6-naphthyridin-6(5H)-yl)-5-methyl-N-((3-methylpyridin-4-yl)methyl)pyridazine-3-carboxamide] was run?
The Emax at 30 µM was 91%.

And the EC50?
The EC50 was 15 nM.

With `Cc1nc(Cl)c(C)c(N2CCc3ncc(Oc4ccc5c(c4)OCCO5)cc3C2)n1` [compound 206, 6-(6-chloro-2,5-dimethyl-pyrimidin-4-yl)-3-(2,3-dihydro-1,4-benzodioxin-6-yloxy)-7,8-dihydro-5H-1,6-naphthyridine] as the compound, how does the Emax at 30 µM read?
Its Emax at 30 µM is 77%.

What about the EC50 of the same compound?
The EC50 was 534 nM.

Which Emax does the source give for `Cc1c(C#N)nnc(N2CCc3ncccc3C2)c1C` [compound 118, 6-(7,8-dihydro-5H-1,6-naphthyridin-6-yl)-4,5-dimethyl-pyridazine-3-carbonitrile] here?
The Emax was 92%.

And the EC50?
Its EC50 is 2820 nM.

With `[2H]C([2H])(NC(=O)c1cc(C)c(N2CCc3ncc(C(F)(F)F)cc3C2)nn1)c1ccncc1` [Example 505, 5-methyl-N-(pyridin-4-ylmethyl-d2)-6-(3-(trifluoromethyl)-7,8-dihydro-1,6-naphthyridin-6(5H)-yl)pyridazine-3-carboxamide] as the compound, how does the Emax at 30 µM read?
Its Emax at 30 µM is 112%.

What about the EC50 of the same compound?
The EC50 was 21 nM.

Which Emax at 30 µM does the source give for `Cc1cc(C(=O)N2CC3(COC3)C2)nnc1N1CCc2ncc(-c3ccnn3C)cc2C1` [Example 565, (5-methyl-6-(3-(1-methyl-1H-pyrazol-5-yl)-7,8-dihydro-1,6-naphthyridin-6(5H)-yl)pyridazin-3-yl)(2-oxa-6-azaspiro[3.3]heptan-6-yl)methanone] here?
Its Emax at 30 µM is 72%.

And the EC50?
The EC50 was 128 nM.

Which results are given for `Cc1cnc2c(c1)CN(c1nnc(C(=O)Nc3ccncc3)c(C)c1C)CC2` [Example 469, 4,5-dimethyl-6-(3-methyl-7,8-dihydro-1,6-naphthyridin-6(5H)-yl)-N-(pyridin-4-yl)pyridazine-3-carboxamide]?
Emax at 30 µM: 98%; EC50: 114 nM

For `[2H]C1([2H])Cc2ncc(Nc3ccncc3C)cc2C([2H])([2H])N1c1ncc(C#N)cc1C` [Example 610, 5-methyl-6-(3-((3-methylpyridin-4-yl)amino)-7,8-dihydro-1,6-naphthyridin-6(5H)-yl-5,5,7,7-d4)nicotinonitrile], which Emax at 30 µM is on record?
The Emax at 30 µM was 70%.

And the EC50?
The EC50 was 59 nM.

For `Cc1cc(C#N)nnc1N1CCc2ncc(C3CC3)cc2C1` [Example 393, 6-(3-cyclopropyl-7,8-dihydro-1,6-naphthyridin-6(5H)-yl)-5-methylpyridazine-3-carbonitrile], which Emax is on record?
Its Emax is 88%.

What about the EC50 of the same compound?
The EC50 was 111 nM.

With `Cc1cc(C(=O)N2CCOCC2)nnc1N1CCc2ncc(CC(F)(F)F)cc2C1` [Example 587, (5-methyl-6-(3-(2,2,2-trifluoroethyl)-7,8-dihydro-1,6-naphthyridin-6(5/)-yl)pyridazin-3-yl)(morpholino)methanone] as the compound, how does the Emax at 30 µM read?
Its Emax at 30 µM is 69%.

What about the EC50 of the same compound?
The EC50 was 6540 nM.

How did the Emax at 30 µM turn out when `Cc1cc(C#N)cnc1N1CCc2ncc(N3CCCC3)cc2C1` [Example 1] was run?
Its Emax at 30 µM is 86%.

And the EC50?
Its EC50 is 286 nM.

With `Cc1cc(C(=O)NCc2cnc(Cl)s2)cnc1N1CCc2ncccc2C1` [compound 134, N-[(2-chlorothiazol-5-yl)methyl]-6-(7,8-dihydro-5H-1,6-naphthyridin-6-yl)-5-methyl-pyridine-3-carboxamide] as the compound, how does the Emax at 30 µM read?
Its Emax at 30 µM is 69%.

What about the EC50 of the same compound?
Its EC50 is 1640 nM.

For `Cc1cc(C(=O)N2CC(CO)C2)nnc1N1CCc2ncc(N3CCCn4nccc43)cc2C1` [Example 554, (6-(3-(6,7-dihydropyrazolo[1,5-a]pyrimidin-4(5H)-yl)-7,8-dihydro-1,6-naphthyridin-6(5H)-yl)-5-methylpyridazin-3-yl)(3-(hydroxymethyl)azetidin-1-yl)methanone], which Emax at 30 µM is on record?
Its Emax at 30 µM is 78%.

And the EC50?
The EC50 was 16 nM.

With `Cc1cc(C(=O)NCc2cnn3ccccc23)cnc1N1CCc2ncccc2C1` [compound 69, 6-(7,8-dihydro-5H-1,6-naphthyridin-6-yl)-5-methyl-N-(pyrazolo[1,5-a]pyridin-3-ylmethyl)pyridine-3-carboxamide] as the compound, how does the Emax at 30 µM read?
The Emax at 30 µM was 80%.

What about the EC50 of the same compound?
Its EC50 is 2380 nM.

`COC(=O)c1ccc(CNC(=O)c2cnc(N3CCc4ncccc4C3)c(C)c2)cn1` [compound 142, methyl 5-[[[6-(7,8-dihydro-5H-1,6-naphthyridin-6-yl)-5-methyl-pyridine-3-carbonyl]amino]methyl]pyridine-2-carboxylate] was tested. Which Emax at 30 µM did it give?
The Emax at 30 µM was 50%.

What about the EC50 of the same compound?
The EC50 was ≥ 10000 nM.

`Cc1cc(C#N)cnc1N1Cc2cc(N3CCOCC3)cnc2C(C)C1` (stereo not shown) [Example 405, 5-methyl-6-(8-methyl-3-morpholino-7,8-dihydro-1,6-naphthyridin-6(5H)-yl)nicotinonitrile] was tested. Which Emax at 30 µM did it give?
The Emax at 30 µM was 83%.

What about the EC50 of the same compound?
Its EC50 is 415 nM.

How did the Emax at 30 µM turn out when `Cc1c(C#N)nnc(N2CCc3ncc(-c4ccc(N5CC6(COC6)C5)nc4)cc3C2)c1C` [Example 332, 6-(3-(6-(2-oxa-6-azaspiro[3.3]heptan-6-yl)pyridin-3-yl)-7,8-dihydro-1,6-naphthyridin-6(5H)-yl)-4,5-dimethylpyridazine-3-carbonitrile] was run?
Its Emax at 30 µM is 83%.

What about the EC50 of the same compound?
The EC50 was 824 nM.
